This note sets out measurements from BindingDB's records for patent US10766864 (Nektar Therapeutics, 2020).

This assay concerns the target Mu-type opioid receptor (Homo sapiens, UniProt P35372). Put plainly: Receptor Binding Assay. The procedure: Affinities of various compounds were measured in vitro using competitive radioligand binding assays. Serial dilutions of test compounds were incubated with membranes prepared from CHO-K1 cells expressing the mu opioid receptor (MOR; for opioid receptor binding) or rat forebrain membranes (for NMDA receptor binding). 2 nM [3H] Naloxone (MOR) or 0.2 nM [3H] MK801 (NMDA) were used as the specific, competitive radioligands. 10 uM Naloxone (MOR), or 10 uM MK801 (NMDA) was used to determine non-specific binding. Bound radioactivity was measured using a scintillation counter & IC50 values for test compounds were determined by non-linear regression analysis using a one-site competition model (Graph Pad Prizm). Due to each test compound being solubilized in a buffered system for the assay, the results presented herein reflect the free base activity.

Sequence of Mu-type opioid receptor (P35372 whole entry): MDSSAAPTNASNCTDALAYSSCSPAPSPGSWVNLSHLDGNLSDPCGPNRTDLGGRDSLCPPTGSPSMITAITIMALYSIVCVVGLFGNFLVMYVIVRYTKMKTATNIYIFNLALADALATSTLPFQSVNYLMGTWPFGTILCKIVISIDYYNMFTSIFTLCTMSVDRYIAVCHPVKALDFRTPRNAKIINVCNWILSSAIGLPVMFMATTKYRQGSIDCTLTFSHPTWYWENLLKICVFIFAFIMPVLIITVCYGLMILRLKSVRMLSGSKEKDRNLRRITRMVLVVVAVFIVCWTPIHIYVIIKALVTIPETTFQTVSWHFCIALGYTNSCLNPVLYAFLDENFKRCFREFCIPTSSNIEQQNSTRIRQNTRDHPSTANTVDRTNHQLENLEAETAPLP

On to `COCCOCCN1CC[C@]23CCCC[C@H]2[C@H]1Cc1cc2sc(N)nc2cc13` [US10766864, Example 97], for which the IC50 was greater than 1000 nM.
